In experiment [1] the target is PGE2 receptor (EP2) (MP412) (Mus musculus, UniProt P32240). Kind of experiment: Inhibition of [3H]-PGE2 binding to MP412-transfected COS-1 cell membranes. Conditions: for inhibition of PGE2 binding by subtype ligands: FIG. 8; for order of inhibition of specific [3H]-PGE2 binding by unlabeled PG: FIG. 7. As for the experimental part:
Mouse mastocytoma P-815 cell cDNA library carring cDNAs larger than 2.0 kb was prepared according to Example 1 (2). The probe DNA was prepared by PCR using mouse EP3 cDNA as a template; this 482 bp fragment covers the transmembrane segments I-IV region of the EP3 receptor. The 2.0×10^5 clones derived from the cDNA library were screened under either high (Sambrook) or low stringency condition. […] This cDNA was transfected into COS-1 cells according to the same manner as in Example 1 (3).
After the COS-1 cells carring the plasmid DNA obtained in above (1) were cultured for 72 h, cells were harvested and cell membranes were prepared.

Experiment [2] addresses T1, PGE2 receptor (EP3), subtype EP3α (MP660) (Mus musculus, UniProt P30557).
T1 sequence (P30557 1-365): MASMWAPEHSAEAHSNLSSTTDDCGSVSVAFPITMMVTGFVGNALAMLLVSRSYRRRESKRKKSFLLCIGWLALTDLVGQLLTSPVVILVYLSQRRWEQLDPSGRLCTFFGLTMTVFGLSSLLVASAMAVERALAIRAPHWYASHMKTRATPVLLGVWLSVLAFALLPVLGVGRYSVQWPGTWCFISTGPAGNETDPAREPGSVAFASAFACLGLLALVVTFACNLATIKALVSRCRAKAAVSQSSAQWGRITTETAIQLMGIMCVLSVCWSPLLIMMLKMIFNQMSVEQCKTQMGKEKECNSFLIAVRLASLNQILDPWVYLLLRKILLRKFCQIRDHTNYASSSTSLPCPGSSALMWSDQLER
Kind of experiment: Inhibition of [3H]-PGE2 binding to MP660-transfected COS-1 cell membranes; ligand-binding test. The following applies: for potency in competing for [3H]PGE2 binding relative to PGE2 / competition for [3H]PGE2 binding: FIG. 2b; for competition for [3H]PGE2 binding: PGE analogues; for order of inhibition of [3H]PGE2 binding by unlabeled PGs: FIG. 2a. From the text:
The cDNA of MP660 was cleaved out with EcoRI and inserted to pcDNAI (Invitrogen) and subcloned, followed by transfection of this plasmid DNA to COS-1 cells by the DEAE-dextran method [D. J. Sussmann and G. Milman, Mol. Cell. Biol., 4, 1641 (1984)]. After 72-hour cultivation, cells were harvested and cell membranes were separated [M. Hirata al., Nature, 349, 617 (1991)].

Experiment [3] concerns the target T2, EP3α receptor (MP660/KCR cells) (Mus musculus, UniProt P30557).
T2 construct: A full-length DNA clone having a 1,095 bp open reading frame, MP660, was thus obtained; expressed in transfected cells; host or cells: CHO-dhfr (lacking dihydrofolate reductase activity) cells; FERM BP-3803)
T2 sequence (P30557 1-365): T1 sequence (P30557 1-365)
Kind of experiment: Forskolin-stimulated cAMP synthesis in CHO cells stably expressing EP3α (MP660/KCR cells). Type of experiment: cell-based. On the procedure:
(§1) To obtain cells that stably express the receptor gene, cDNA transfection was conducted by the method described by Nakajima et al. [J. Biol. Chem., 267, 2437 (1992)] to establish a cell line. Specifically, the EcoRI fragment of MP660 was inserted to pdKCR-dhfr [S. Oikawa et al., Biochem. Biophys. Res. Commun., 164, 39 (1989)], a eukaryotic cell expression vector having the mouse dhfr gene as a selection marker. This plasmid was transfected to CHO-dhfr (lacking dihydrofolate reductase activity) cells [G. Urlaub and L. A. Chasin, Proc. Natl. Acad. Sci. USA, 77, 4216 (1980)] by the calcium phosphate method [F. L. Graham and A. J. van der Eb, Virology, 52, 456 (1973)]. The cells were subjected to selection culture in α-modified Eagle's medium [S. Oikawa et al., Biochem. Biophys. Res. Commun., 164, 39 (1989)] which contained no ribonucleoside and deoxyribonucleoside and which contained 100 unit/ml penicillin, 100 μg/ml streptomycin and 10% dialyzed bovine fetal serum (Cell Culture Laboratories). The cells which proliferated were cloned and clone cells were obtained. EP3α receptor cDNA transfection was confirmed by the RNA blotting method.

The subject of experiment [4] is EP2. The following applies: literature; cited from earlier work.
For experiment [5], the system named is EP3β receptor (MP653/KCR cells). Kind of experiment: Forskolin-stimulated cAMP synthesis in CHO cells stably expressing EP3β (MP653/KCR cells). Format: cell-based, mouse. As for the experimental part: as §1, with “of MP653” for “of MP660”, “to CHO-dhfr(lacking” for “to CHO-dhfr (lacking”, “method [(F.” for “method [F.”, “cloned to have” for “cloned and”, “clone cells. EP3β” for “clone cells were obtained. EP3α”, “method. Using thus-obtained CHO cells which constantly express the EP3β receptor [MP653/KCR cells; IFO 50397, FERM BP-4183], the effect of PGE2 on forskolin-stimulated cAMP synthesis or M&B28, 767, an EP3 -specific agonist was assessed.” for “method.”

The target in experiment [6] is T3, EP2 receptor (MP412) (Mus musculus, UniProt P32240).
T3 construct: cAMP and inositol phosphate tests
T3 sequence (P32240 whole entry): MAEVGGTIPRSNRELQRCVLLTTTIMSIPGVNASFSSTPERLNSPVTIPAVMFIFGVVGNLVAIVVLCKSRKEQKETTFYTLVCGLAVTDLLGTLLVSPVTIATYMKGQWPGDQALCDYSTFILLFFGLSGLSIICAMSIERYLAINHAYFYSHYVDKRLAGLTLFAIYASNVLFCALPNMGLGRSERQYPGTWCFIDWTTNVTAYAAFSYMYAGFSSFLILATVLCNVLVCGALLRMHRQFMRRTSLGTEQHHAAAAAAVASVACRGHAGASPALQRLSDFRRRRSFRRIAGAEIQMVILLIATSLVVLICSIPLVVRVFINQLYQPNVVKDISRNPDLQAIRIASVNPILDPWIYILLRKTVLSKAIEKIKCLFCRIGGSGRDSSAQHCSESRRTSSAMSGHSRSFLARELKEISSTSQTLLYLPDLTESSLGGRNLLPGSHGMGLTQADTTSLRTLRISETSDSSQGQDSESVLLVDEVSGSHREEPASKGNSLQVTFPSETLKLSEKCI
Kind of experiment: cAMP assay in MP412-transfected COS-1 cells. Type of experiment: cell-based.
Description: For cAMP assay, the plasmid DNA was transfected into COS-1 cells by the lipofection method (P. L. Felgner et al., Proc. Natl. Acad. Sci., 84, 7413 (1987)) and cultured for 72 h in a 24-well plate. Cyclic AMP levels in the cells were determined according to the method of Nakajima et al. (J. Biol. Chem. 267, 2437 (1992)).

The subject of experiment [7] is membranes of untransfected cells. Kind of experiment: [3H]-PGE2 binding to membranes of untransfected COS-1 cells (control). The following applies: untransfected COS-1 cell membranes. From the text:
(§2) The cDNA of MP660 was cleaved out with EcoRI and inserted to pcDNAI (Invitrogen) and subcloned, followed by transfection of this plasmid DNA to COS-1 cells by the DEAE-dextran method [D. J. Sussmann and G. Milman, Mol. Cell. Biol., 4, 1641 (1984)]. After 72-hour cultivation, cells were harvested and cell membranes were separated [M. Hirata al., Nature, 349, 617 (1991)]. […] Also, the PGE2 receptor obtained was identified as the subtype EP3α receptor.
After the COS-1 cells carring the plasmid DNA obtained in above (1) were cultured for 72 h, cells were harvested and cell membranes were prepared. […] The lack of binding activity of butaprost in mouse EP2 might indicate that the action of butaprost is species specific or there may be other forms of EP2 receptor subtype.

The test system of experiment [8] is EP3β receptor (MP653). Kind of experiment: Ligand-binding assay, [3H]-PGE2 binding to MP653-transfected COS-1 cell membranes. Further details: species or system mouse.
Description: as §2, with “MP653” for “MP660”, “Hirata et” for “Hirata”, “EP3β” for “EP3α”, “receptor. The result of inhibitory activities of various ligands on the binding of [^3 H]-PGE2 to the MP653-transfected cell membrance was substantially the same as on the binding of [^3 H]-PGE2 to the MP660--transfected cell membrance obtained in Example 1.” for “receptor.”

pIC50: −log10 of the molar value.

Sequence of PGE2 receptor (EP2) (MP412) (P32240 whole entry, the tested form may be a part): as the sequence (P32240 whole entry) above

With `CCCCC(C)(O)C/C=C/[C@H]1[C@H](O)CC(=O)[C@@H]1CCCCCCC(=O)OC` (mixture of isomers) [misoprostol], the “inhibition of PGE2 binding by subtype ligands” value (from here on “inhibition of PGE2 binding”) in experiment [1] was “inhibited”.
As to `O=C(CC/C=C\CC[C@H]1C(=O)C[C@@H](O)[C@@H]1OCC(O)COc1ccccc1)Oc1ccc(NC(=O)c2ccccc2)cc1` (some centres unmarked) [GR 63799X], in experiment [2], the “potency in competing for [3H]PGE2 binding relative to PGE2” value is given as “more potent than PGE2 itself” and the “competition for [3H]PGE2 binding” value was “specifically competed for the[^3 H]PGE2 binding with equal potency”.
With `O=C(O)CCCCCC[C@H]1C(=O)CC[C@@H]1/C=C/[C@@H](O)COc1ccccc1` [M&B 28,767], in experiment [3] (FIG. 3), the “effect on forskolin-induced cAMP synthesis/accumulation” value is on record as “inhibited forskolin-induced cAMP synthesis” and the “potency in inhibiting forskolin-induced cAMP synthesis relative to PGE2” value is listed as “more potent than (PGE2”. Moreover, the “inhibition of PGE2 binding” value in experiment [1] is given as “more weakly”. In addition, in experiment [2], the “potency in competing for [3H]PGE2 binding relative to PGE2” value is “more potent than PGE2 itself” and the “competition for [3H]PGE2 binding” value was “specifically competed for the[^3 H]PGE2 binding with equal potency”. Further, in experiment [4], the “cross-reaction to EP2” value is “weak cross-reaction”. In addition, the “effect on forskolin-stimulated cAMP synthesis” value in experiment [5] is “cAMP synthesis in MP653/KCR cells is inhibited”.
With `CCCCC[C@H](O)/C=C/[C@H]1C(=O)C[C@H](O)[C@@H]1C/C=C\CCCC(=O)O` [PGD2], in experiment [1], the “order of inhibition of specific [3H]-PGE2 binding by unlabeled PG” value (“order of inhibition of specific” for short) is “PGE2 (.largecircle.)=PGE1 (.circle-solid.)>>iloprost(.box-solid.), a stable PGI2 analogue ≥PGF2α (Δ)PGD2 (.quadrature.)”. In addition, in experiment [2], the “order of inhibition of [3H]PGE2 binding by unlabeled PGs” value (from here on “order of inhibition of [3H]PGE2 binding”) is listed as “PGE2 =PGE1 >iloprost, a PGI2 analogue>PGF2α >PGD2”.
Regarding `CCCCC[C@H](O)/C=C/[C@H]1[C@H](O)CC(=O)[C@@H]1CCCCCCC(=O)O` [PGE1], in experiment [1], the “order of inhibition of specific” value is “PGE2 (.largecircle.)=PGE1 (.circle-solid.)>>iloprost(.box-solid.), a stable PGI2 analogue ≥PGF2α (Δ)PGD2 (.quadrature.)”. Further, the “order of inhibition of [3H]PGE2 binding” value in experiment [2] is listed as “PGE2 =PGE1 >iloprost, a PGI2 analogue>PGF2α >PGD2”.
For the compound `CCCCC[C@H](O)/C=C/[C@H]1[C@H](O)CC(=O)[C@@H]1C/C=C\CCCC(=O)O` [PGE2, prostaglandin E2], the “effect on forskolin-induced cAMP synthesis/accumulation” value in experiment [3] (FIG. 3) is on record as “dosedependent decrease”. Also, the pIC50 in experiment [3] (forskolin-induced, FIG. 3, read-out: IC50 (inhibition of forskolin-induced cAMP synthesis)) is 10.00. For the same compound, the “order of inhibition of specific” value in experiment [1] is recorded as “PGE2 (.largecircle.)=PGE1 (.circle-solid.)>>iloprost(.box-solid.), a stable PGI2 analogue ≥PGF2α (Δ)PGD2 (.quadrature.)”. Besides, in experiment [2], the “order of inhibition of [3H]PGE2 binding” value is listed as “PGE2 =PGE1 >iloprost, a PGI2 analogue>PGF2α >PGD2”. Besides, the “inhibition of forskolin-induced cAMP formation” value in experiment [6] (forskolin) is listed as “neither inhibited forskolin-induced cAMP formation”. Also, the cAMP level entry in experiment [6] (no forskolin stated, FIG. 9) is recorded as “dose-dependently increased cAMP level”. Moreover, in experiment [5], the “effect on forskolin-stimulated cAMP synthesis” value is recorded as “cAMP synthesis in MP653/KCR cells is inhibited”.
In the case of `CCCCC[C@H](O)/C=C/[C@@H]1[C@@H](C/C=C\CCCC(=O)O)[C@@H](O)C[C@H]1O` [PGF2α], in experiment [1], the “order of inhibition of specific” value is “PGE2 (.largecircle.)=PGE1 (.circle-solid.)>>iloprost(.box-solid.), a stable PGI2 analogue ≥PGF2α (Δ)PGD2 (.quadrature.)”. Moreover, in experiment [2], the “order of inhibition of [3H]PGE2 binding” value was “PGE2 =PGE1 >iloprost, a PGI2 analogue>PGF2α >PGD2”.
Turning to `CC(=O)NNC(=O)N1Cc2ccccc2Oc2ccc(Cl)cc21` [SC-19220], in experiment [1], the “inhibition of PGE2 binding” value is on record as “did not inhibit it”. In experiment [2], the “competition for [3H]PGE2 binding” value is listed as “no competition was found at all”.
As for `CCCCC[C@H](O)/C=C/[C@H]1[C@H](O)CC(=O)[C@@H]1C/C=C\CCCC(=O)O` [[3H]-PGE2], the “binding to membranes of untransfected cells” value in experiment [7] (listed as [^3 H]-PGE2) is “almost negligible”; in experiment [7] (listed as [^3 H]PGE2), “did not bind to membranes of untransfected cells”. The “specific binding of [3H]-labeled prostaglandin” value in experiment [1], in experiment [2] and in experiment [8] was “found to show specific binding” each time.
With `CCCC1([C@H](O)C/C=C/[C@H]2[C@H](O)CC(=O)[C@@H]2CCCCCCC(=O)OC)CCC1` [butaprost], the “inhibition of PGE2 binding” value in experiment [1] is “did not inhibit it”. For the same compound, the “competition for [3H]PGE2 binding” value in experiment [2] is “no competition was found at all”.
Consider `CC#CCC(C)[C@H](O)/C=C/[C@@H]1[C@H]2C/C(=C/CCCC(=O)O)C[C@H]2C[C@H]1O` (some centres unmarked) [iloprost], for which the “order of inhibition of specific” value in experiment [1] is listed as “PGE2 (.largecircle.)=PGE1 (.circle-solid.)>>iloprost(.box-solid.), a stable PGI2 analogue ≥PGF2α (Δ)PGD2 (.quadrature.)”. Further, the “order of inhibition of [3H]PGE2 binding” value in experiment [2] is given as “PGE2 =PGE1 >iloprost, a PGI2 analogue>PGF2α >PGD2”.
For `CS(=O)(=O)NC(=O)CCC/C=C\C[C@H]1C(=O)C[C@@H](O)[C@@H]1/C=C/[C@@H](O)COc1ccccc1` [sulprostone], the “inhibition of PGE2 binding” value in experiment [1] was “did not inhibit it”.

Values taken from patent US5804415A, “Prostaglandin E receptors, their DNA and production” (Takeda Chemical Industries, Ltd., priority 1992, dated 1998).
